# Reference: patent publication US6713048B2, “Δ9 tetrahydrocannabinol (Δ9 THC) solution metered dose inhalers and methods of use” (Virginia Commonwealth University, priority 1998, dated 2004)
# Tests used:
# [1] = Apparent solubility of Δ^9 THC in ethanol/HFA propellant blends; format: physicochemical
# From the text: When the propellant is a hydrofluoroalkane, it has been discovered that the propellant may be used with or without a solvent such as ethanol. Higher percentages of solvent generally allow higher levels of dissolution of Δ^9 THC. However, higher percentages of solvent also cause droplet size to increase. […] Within this range of percentages, pharmaceutically useful concentrations of Δ^9 THC can be achieved and droplet size is still small enough (<5.8 um) to provide excellent aerosol delivery of the drug. While these ratios reflect preferred embodiments of the invention, it will be recognized by those of skill in the art that the exact ratio of propellant to solvent (e.g. ethanol) may vary according to the desired final concentration of Δ^9 THC and droplet size. Any ratio of propellant to solvent that results in appropriate sized droplets and adequate dissolution of the Δ^9 THC may be used in the practice of this invention, and this will generally be in the range of from 100 to 80% propellant and 0 to 20% solvent. It is expected that a wide variety of solvents, such as ethanol, propanol, propylene glycol, glycerol, polyethylene glycol, etc. may be used in the preparation of formulations contemplated by this invention.
# [2] = tested on: AIDS-associated anorexia and cachexia; settings: oral 2.5 mg THC once or twice daily increasing to 20 mg daily; 94 patients; 12 months; cited from earlier work
smiles,measurement,setting,value
"CCCCCc1cc(O)c2c(c1)OC(C)(C)[C@@H]1CCC(C)=C[C@@H]21 (relative stereo) [Δ^9 THC, (6aR-trans)-6a,7,8,10a-tetrahydro-6,6,9-trimethyl-3-pentyl-6H-dibenzo[b,d]-pyran-1-ol]",Apparent Solubility Mean (±SD),[1]; 5% Ethanol/95% HFA 134a,1.585% w/w
same,Apparent Solubility Mean (±SD),[1]; 5% Ethanol/95% HFA 227,1.339% w/w
same,Apparent Solubility Mean (±SD),[1]; 10% Ethanol/90% HFA 227,3.240% w/w
same,Apparent Solubility Mean (±SD),[1]; 10% Ethanol/90% HPA 134a,3.511 % w/w
same,Apparent Solubility Mean (±SD),[1]; 15% Ethanol/85% HFA 134a,4.883% w/w
same,Apparent Solubility Mean (±SD),[1]; 15% Ethanol/85% HFA 227,5.94 % w/w
same,Apparent Solubility Mean (±SD),"[1]; 100% HFA 134a, n = 5",0.224% w/w
same,Apparent Solubility Mean (±SD),[1]; 100% HFA 227,0.147 % w/w
same,appetite compared to controls,[2],improved appetite and only
same,weight compared to controls,[2],tended to increase weight
